Experimental data reported in ChEMBL document CHEMBL4138123, “Design, synthesis and biological evaluation of novel pyrazolochalcones as potential modulators of PI3K/Akt/mTOR pathway and inducers of apoptosis in breast cancer cells” (Eur J Med Chem, 2017).

What was measured:
MCF7 [1] = experiment: Cytotoxicity against human MCF7 cells assessed as growth inhibition after 48 hrs by MTT assay; type: functional, cell-based; conditions: MCF7, 48 h
MDA-MB-231 = experiment: Cytotoxicity against human MDA-MB-231 cells assessed as growth inhibition after 48 hrs by MTT assay; type: functional, cell-based; conditions: MDA-MB-231, 48 h
MCF7 [2] = experiment: Cell cycle arrest in human MCF7 cells assessed as accumulation at G2/M phase at 2 uM after 24 hrs by flow cytometric analysis (reference value: 2.35%); type: functional
MCF7 [3] = experiment: Cell cycle arrest in human MCF7 cells assessed as accumulation at S phase at 2 uM after 48 hrs by flow cytometric analysis (reference value: 57.7%); type: functional
MCF7 [4] = experiment: Induction of apoptosis in human MCF7 cells assessed as viable cells at 2 uM after 24 hrs by Annexin-V FITC/propidium iodide staining-based FACS analysis (reference value: 93.9%); type: functional; conditions: MCF7, 24 h, read-out: Activity
MCF7 [5] = experiment: Induction of apoptosis in human MCF7 cells assessed as necrotic cells at 2 uM after 24 hrs by Annexin-V FITC/propidium iodide staining-based FACS analysis (reference value: 0.2%); type: functional
MCF7 [6] = experiment: Induction of intrinsic apoptosis in human MCF7 cells assessed as effect on mitochondrial membrane depolarization at 2 uM after 5 hrs by DiOC6 staining-based FACS analysis relative to control; type: functional
MCF7 [7] = experiment: Induction of apoptosis in human MCF7 cells assessed as late apoptotic cells at 2 uM after 24 hrs by Annexin-V FITC/propidium iodide staining-based FACS analysis (reference value: 5.4%); type: functional
MCF7 [8] = experiment: Induction of intrinsic apoptosis in human MCF7 cells assessed as effect on mitochondrial membrane depolarization by measuring mean fluorescence intensity at 2 uM after 18 hrs by DiOC6 staining-based FACS analysis (reference value: 463); type: functional
MCF7 [9] = experiment: Cell cycle arrest in human MCF7 cells assessed as accumulation at G0/G1 phase at 2 uM after 48 hrs by flow cytometric analysis (reference value: 34.2%); type: functional
MCF7 [10] = experiment: Induction of intrinsic apoptosis in human MCF7 cells assessed as effect on mitochondrial membrane depolarization at 2 uM after 18 hrs by DiOC6 staining-based FACS analysis (reference value: 2%); type: functional
MCF7 [11] = experiment: Induction of apoptosis in human MCF7 cells assessed as early apoptotic cells at 2 uM after 24 hrs by Annexin-V FITC/propidium iodide staining-based FACS analysis (reference value: 0.5%); type: functional
MCF7 [12] = experiment: Cell cycle arrest in human MCF7 cells assessed as accumulation at G0/G1 phase at 2 uM after 24 hrs by flow cytometric analysis (reference value: 18.4%); type: functional
MCF7 [13] = experiment: Cell cycle arrest in human MCF7 cells assessed as accumulation at S phase at 2 uM after 24 hrs by flow cytometric analysis (reference value: 79.1%); type: functional
MCF7 [14] = experiment: Cell cycle arrest in human MCF7 cells assessed as accumulation at G2/M phase at 2 uM after 48 hrs by flow cytometric analysis (reference value: 8.1%); type: functional

SMILES	IC50 (MCF7 [1]) [µM]	IC50 (MDA-MB-231) [µM]	other results
COc1cc(-c2cc(/C=C3\CCc4ccccc4C3=O)[nH]n2)cc(OC)c1OC	8.5	9.5	–
COc1ccc(C(=O)/C=C/c2cc(-c3ccc4c(c3)OCO4)n[nH]2)cc1	3.5	3.5	–
O=C(/C=C/c1cc(-c2ccc3c(c2)OCO3)n[nH]1)c1ccc(Cl)c(Cl)c1	10.8	14.8	–
O=C1CCCC/C1=C\c1cc(-c2ccc3c(c2)OCO3)n[nH]1	15.1	11.8	–
O=C(/C=C/c1cc(-c2ccc3c(c2)OCO3)n[nH]1)c1ccc2c(c1)OCO2	2.1	3.3	–
COc1cc(-c2cc(/C=C/C(C)=O)[nH]n2)cc(OC)c1OC	20.1	27.3	–
O=C(/C=C/c1cc(-c2ccc3c(c2)OCO3)n[nH]1)c1ccccc1	8	12.1	–
O=C1/C(=C/c2cc(-c3ccc4c(c3)OCO4)n[nH]2)CCc2ccccc21	9.9	12.6	–
COc1ccc2c(c1)C/C(=C\c1cc(-c3cc(OC)c(OC)c(OC)c3)n[nH]1)C2=O	2.1	2	–
CC(=O)/C=C/c1cc(-c2ccc3c(c2)OCO3)n[nH]1	21.6	20.2	–
COc1ccc(-c2cc(/C=C/C(=O)c3cc(OC)c(OC)c(OC)c3)[nH]n2)cc1	2	2.4	–
O=C(/C=C/c1cc(-c2ccc3c(c2)OCO3)n[nH]1)c1ccc(F)c(F)c1	8.1	12.1	–
COc1ccc(C(=O)/C=C/c2cc(-c3cc(OC)c(OC)c(OC)c3)n[nH]2)cc1F	3	2.7	–
COc1cc(-c2cc(/C=C/C(=O)c3ccccc3)[nH]n2)cc(OC)c1OC	2.1	2.3	–
Nc1ccc(C(=O)/C=C/c2cc(-c3ccc4c(c3)OCO4)n[nH]2)cc1	3.5	5.1	–
COc1ccc(/C=C\c2cc(OC)c(OC)c(OC)c2)cc1O [COMBRETASTATIN A4]	0.12	0.17	Activity (MCF7 [2]): 56.3%; Activity (MCF7 [3]): 12%; viability at 2 µM (MCF7 [4]): 75.8%; Activity (MCF7 [5]): 1.3%; Activity (MCF7 [6]): 7.6%; Activity (MCF7 [7]): 16.8%; Flu intensity (MCF7 [8]): 558; Activity (MCF7 [9]): 2.4%; Activity (MCF7 [10]): 46%; Activity (MCF7 [11]): 6.1%; Activity (MCF7 [12]): 0%; Activity (MCF7 [13]): 46.3%; Activity (MCF7 [14]): 85.5%
COc1cc(-c2cc(/C=C3\Cc4ccccc4C3=O)[nH]n2)cc(OC)c1OC	4.8	7.1	–
O=C1/C(=C/c2cc(-c3ccc4c(c3)OCO4)n[nH]2)Cc2ccccc21	5.1	8.3	–
COc1ccc(C(=O)/C=C/c2cc(-c3ccc4c(c3)OCO4)n[nH]2)cc1F	13.5	15.9	–
COc1ccc(-c2cc(/C=C/C(=O)c3ccc4c(c3)OCO4)[nH]n2)cc1	2.5	3.3	–
COc1cccc2c1C(=O)c1c(O)c3c(c(O)c1C2=O)C[C@@](O)(C(=O)CO)C[C@@H]3O[C@H]1C[C@H](N)[C@H](O)[C@H](C)O1.Cl [DOXORUBICIN HYDROCHLORIDE]	–	–	Activity (MCF7 [2]): 1.2%; Activity (MCF7 [3]): 40.1%; Activity (MCF7 [9]): 59.1%; Activity (MCF7 [12]): 82.5%; Activity (MCF7 [13]): 16.2%; Activity (MCF7 [14]): 0.8%
COc1ccc2c(c1)C/C(=C\c1cc(-c3ccc4c(c3)OCO4)n[nH]1)C2=O	2.7	4.1	–
COc1cc(-c2cc(/C=C/C(=O)c3ccc(Cl)cc3)[nH]n2)cc(OC)c1OC	11.6	26	–
COc1cc2c(cc1OC)C(=O)/C(=C/c1cc(-c3cc(OC)c(OC)c(OC)c3)n[nH]1)C2	2	2.5	–
O=C(/C=C/c1cc(-c2ccc3c(c2)OCO3)n[nH]1)c1ccc(Cl)cc1	15	17.5	–
COc1cc(-c2cc(/C=C3\CCCCC3=O)[nH]n2)cc(OC)c1OC	10.1	17.8	–
